Where “and” joins values, the source holds several entries; their conditions need not be identical. Equal values may be shown once. Blank lines part the entries; values can stand above or below the compound they belong to.
Experiments:
[1] = molecular target: T1, LRP cl-IV binding to BSA-AGE (Bos taurus, UniProt P02769); experiment: ELISA, interference with LRP cl-IV binding to BSA-AGE; parameters: species or system human; conditions: concentration series, 50 times diluted LRP cl-IV medium
T1 construct: made in house; host or cells: HEK293E/S (LRP cl-IV, culture supernatant)
Protocol: To test whether amyloid-like crossbeta structure binding compounds tPA, Congo red, Thioflavin T and Thioflavin S interfere with LRP cl-IV binding to BSA-AGE, concentration series of the potential inhibitory amyloid binding moieties were tested in the presence of 50 times diluted medium containing LRP cl-IV. The following inhibitors were used: tPA, Congo red, Thioflavin T (ThT) and Thioflavin S (ThS). As a control to tPA, K2P tPA, which lacks the amyloid-like misfolded protein binding finger domain, was included in the analyses. The influence of tPA and K2P tPA was tested in the presence of 10 mM ε-amino caproic acid to avoid binding of the kringle2 domain of tPA and K2P tPA to lysine- and arginine residues. Binding buffer and K2P tPA serve as negative controls in these inhibition studies. The concentration series was measured in triplicate, the values averaged and standard deviations calculated. Background signals obtained with buffer-coated wells were subtracted. Signals obtained with binding of LRP cluster IV to BSA-AGE was set arbitrarily to a reference binding of 100% and signals obtained with the concentration series of misfolded protein binding moieties and K2P tPA were calculated based on this set reference.

[2] = test system: tPA binding to amyloid-like aggregates; conditions: ELISAs; patent application P57716EP00 and unpublished data; cited from earlier work
platelets = experiment: Aggregometric assay with washed platelets; format: cell-based, human
Protocol: The presence of protein(s) and/or peptide(s) with amyloid-like misfolded protein conformation on activated blood platelets was tested with washed platelets in an aggregometric assay. Freshly drawn human aspirin free blood was mixed gently with citrate buffer to avoid coagulation. Blood was spinned for 15 minutes at 150*g at 20° C. and supernatant was collected; platelet rich plasma (PRP). […] After spinning down the platelets upon centrifugation for 15 minutes at 330*g at 20° C., the pellet was resuspended in HEPES-Tyrode buffer pH 6.5. Prostacyclin was added to a final concentration of 10 ng/ml, and the solution was centrifuged for 15 minutes at 330*g at 20° C., with a soft brake. The pellet was resuspended in HEPES-Tyrode buffer pH 7.2 in a way that the final platelet number was adjusted to 200,000/μl. Platelets were kept at 37° C. for at least 30 minutes, before use in the assays, to ensure that they were in the resting state.
For the aggregometric assays, 400 μl platelet solution was added to a glass tube with 100 μl containing the agonist of interest, fibrinogen and CaCl2. Final concentrations of fibrinogen and CaCl2 were 0.5 mg/ml and 3 mM, respectively. A stirring magnet was added and the apparatus (Whole-blood aggregometer, Chrono-log, Havertown, Pa., USA) was blanked. Aggregation was followed in time by measuring the absorbance of the solution, that will decrease in time upon platelet aggregation. As a positive control, 0.5 U/ml thrombin was used, or TRAP. Aggregation was followed for 10 minutes. Influence of 200 μM Thioflavin T, 200 μM Congo red or 1 μM tPA on platelet aggregation was analyzed.

[3] = Congo red fluorescence of protein solutions; format: physicochemical
Protocol: Background signals from buffer, buffer with Congo red and protein/peptide solution without Congo red were subtracted from corresponding measurements with protein solution incubated with Congo red. Fluorescence was measured in triplicate on a Hitachi F-4500 fluorescence spectrophotometer (Ltd., Tokyo, Japan).
(§1) Formulated protein therapeutics were obtained from the local hospital pharmacy and were used as supplied by the manufacturers. […] Lyophilized therapeutics were dissolved according to the manufacturers recommendations. GH, zinc-insulin, Cealb and gelatin were stored at −20, 4, room temperature, 37 and 65° C. Other protein therapeutics were only kept at 4° C., and assayed for the presence of cross-β structure at shown time points. Enhancement in fluorescence of ThT and Congo red was measured with all formulated protein therapeutics. For this purpose, proteins were diluted to the indicated concentrations. […] Zinc-insulin was diluted tenfold in the activation assay, GH was diluted to a final concentration of 500 μg ml^−1. Activation of factor XII and prekallikrein by the therapeutics was tested in the chromogenic factor XII assay (see above). […] After coating, plates were blocked with Blocking Reagent (Roche Diagnostics, Almere, The Netherlands).

tPA [4] = molecular target: T2, tPA (Homo sapiens, UniProt P00750); experiment: tPA ELISA with coated protein therapeutics; format: binding; conditions: ELISA, stored at the recommended temperature of 4° C.
Protocol: as §1

factor XII = molecular target: T3, factor XII (Homo sapiens, UniProt P00748); experiment: Factor XII / prekallikrein activation assay (Chromozym-PK); format: biochemical
T3 construct: purified human factor XII from plasma (Calbiochem); purchased Calbiochem; host or cells: human plasma
T3 sequence (P00748 20-615): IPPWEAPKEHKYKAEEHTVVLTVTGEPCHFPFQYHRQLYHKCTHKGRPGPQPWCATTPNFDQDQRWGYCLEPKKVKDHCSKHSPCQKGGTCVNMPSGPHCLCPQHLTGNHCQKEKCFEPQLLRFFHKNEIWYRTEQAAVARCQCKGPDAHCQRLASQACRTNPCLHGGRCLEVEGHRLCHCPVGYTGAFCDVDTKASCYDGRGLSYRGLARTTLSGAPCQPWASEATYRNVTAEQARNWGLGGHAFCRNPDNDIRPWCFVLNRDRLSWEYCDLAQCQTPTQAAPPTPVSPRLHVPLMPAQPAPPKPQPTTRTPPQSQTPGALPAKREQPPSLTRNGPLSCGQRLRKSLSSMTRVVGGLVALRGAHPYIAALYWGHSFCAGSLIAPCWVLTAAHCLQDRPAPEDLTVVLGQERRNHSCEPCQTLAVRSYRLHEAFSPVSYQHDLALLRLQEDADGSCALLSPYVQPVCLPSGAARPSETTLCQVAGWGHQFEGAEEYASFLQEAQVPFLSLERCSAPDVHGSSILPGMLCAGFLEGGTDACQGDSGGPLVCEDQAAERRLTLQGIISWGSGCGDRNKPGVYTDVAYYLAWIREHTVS
Protocol: Plasmin (Pls) activity was assayed as described^16. Peptides and proteins that were tested for their stimulatory ability were regularly used at 100 μg ml^−1. […] Chromogenic substrate S-2251 (Chromogenix, Instrumentation Laboratory SpA, Milano, Italy) was used to measure Pls activity. Conversion of zymogen factor XII (#233490, Calbiochem, EMD Biosciences, Inc., San Diego, Calif.) to proteolytically active factor XII (factor XIIa) was assayed by measurement of the conversion of chromogenic substrate Chromozym-PK (Roche Diagnostics, Almere, The Netherlands) by kallikrein. Chromozym-PK was used at a concentration of 0.3 mM. Factor XII, human plasma prekallikrein (#529583, Calbiochem) and human plasma cofactor high-molecular weight kininogen (#422686, Calbiochem) were used at concentrations of 1 μg ml^−1. […] Assays were performed using microtiter plates (Costar, Cambridge, Mass., USA). Peptides and proteins were tested for their ability to activate factor XII. […] The conversion of Chromozym-PK was recorded kinetically at 37° C. for at least 60 minutes. […]
Formulated protein therapeutics were obtained from the local hospital pharmacy and were used as supplied by the manufacturers. […] Enhancement in fluorescence of ThT and Congo red was measured with all formulated protein therapeutics. […]

tPA [5] = molecular target: T2, tPA; experiment: Plasminogen-activation assay (tPA activation, S-2251); format: biochemical; conditions: 100 μg ml^−1
Protocol: Plasmin (Pls) activity was assayed as described^16. Peptides and proteins that were tested for their stimulatory ability were regularly used at 100 μg ml^−1. […] Chromogenic substrate S-2251 (Chromogenix, Instrumentation Laboratory SpA, Milano, Italy) was used to measure Pls activity. Conversion of zymogen factor XII (#233490, Calbiochem, EMD Biosciences, Inc., San Diego, Calif.) to proteolytically active factor XII (factor XIIa) was assayed by measurement of the conversion of chromogenic substrate Chromozym-PK (Roche Diagnostics, Almere, The Netherlands) by kallikrein. Chromozym-PK was used at a concentration of 0.3 mM. Factor XII, human plasma prekallikrein (#529583, Calbiochem) and human plasma cofactor high-molecular weight kininogen (#422686, Calbiochem) were used at concentrations of 1 μg ml^−1. […] Assays were performed using microtiter plates (Costar, Cambridge, Mass., USA). Peptides and proteins were tested for their ability to activate factor XII. 150 μg ml^−1 kaolin, an established activator of factor XII was used as positive control and solvent (H2O) as negative control. The conversion of Chromozym-PK was recorded kinetically at 37° C. for at least 60 minutes. Assays were done in duplicate.
as §1
To prepare structurally altered ovalbumin (OVA) with amyloid cross-β structures, purified OVA (Sigma, A-7641, lot 071k7094) was heated to 85° C. One mg ml^−1 OVA in 67 mM NaPi buffer pH 7.0, 100 mM NaCl, was heated for two cycles in PCR cups in a PTC-200 thermal cycler (MJ Research, Inc., Waltham, Mass., USA). In each cycle, OVA was heated from 30 to 85° C. at a rate of 5° C./min. Native OVA (nOVA) and heat-denatured OVA (dOVA) were tested in the ThT fluorescence assay and in the Plg-activation assay. In the fluorescence assay and in the Plg-activation assay, 25 and 100 μg ml^−1 nOVA and dOVA were tested, respectively. TEM images of nOVA and dOVA were taken to check for the presence of large aggregates.
MSA (#126674, Calbiochem) was dissolved in 8 M urea, 100 mM Tris-HCl pH 8.2, at 10 mg ml^−1 final concentration. Dithiothreitol (DTT) was added to a final concentration of 10 mM. Air was replaced by N2 and the solution was incubated for 2 h at room temperature. Then, the solution was transferred to ice and iodoacetamide was added from a 1 M stock to a final concentration of 20 mM. […] Alkyl-MSA was dialyzed against H2O before use. […] In the ThT-fluorescence assay 25 μg ml^−1 nMSA and alkyl-MSA were tested, and in the Plg-activation assay 100 μg ml^−1 was tested. The presence of aggregates or fibrils was analyzed using TEM.
Lyophilized sterile glucagon was dissolved at 1 mg ml^−1 in H2O with 10 mM HCl. The solution was subsequently kept at 37° C. for 24 h, at 4° C. for 14 days and again at 37° C. for 9 days. […] TEM analysis was performed to assess the presence of large multimeric structures.

Fn F4-5 = molecular target: T4, Fn F4-5 (Homo sapiens, UniProt P02751); experiment: Biacore surface plasmon resonance, binding to immobilized Fn F4-5
T4 construct: amino-acids NH2—I182-V276-COOH of Fn F4-5; made in house; host or cells: Saccharomyces cerevisiae
Protocol: Binding of cross-β structure containing peptides/proteins was studied using surface plasmon resonance technology with a Biacore 2000 apparatus (Biacore AB, Uppsala, Sweden). A standardized amine coupling procedure was used to couple proteins with F domains to a CM5 chip (Biacore AB, Uppsala, Sweden). First, the dextran surface of the chips was activated by a 35 μl injection with a 1:1 mixture of 0.1 M N-hydroxysuccinimide (NHS) and 0.4 M N-ethyl-N′-(dimethylaminopropyl)carbodiimide (EDC) at a flow rate of 5 μl min.^−1. Then, the proteins were covalently coupled to the activated dextran surface. Remaining activated groups in each of the four flow channels were blocked by injection of 35 μl of 1 M ethanolamine hydrochloride pH 8.5. EDC, NHS and ethanolamine hydrochloride were obtained from Biacore. On one chip, on channels 1 to 4, buffer (reference channel), the soluble extracellular part of receptor for advanced glycation endproducts (sRAGE), tPA and K2P-tPA were immobilized. […] Binding of albumin-AGE was determined with a solution of 3.9 μg ml^−1 albumin-AGE in running buffer. albumin-AGE was filtered on a Millex-GV 0.22 μm filter unit (Millipore). […] Binding of Hb-AGE was also tested after centrifugation for 10 min. at 16,000*g alternative to filtration. tPA activation before and after filtration was assessed with a Plg-activation assay. […]

T4 sequence (P02751 182-276): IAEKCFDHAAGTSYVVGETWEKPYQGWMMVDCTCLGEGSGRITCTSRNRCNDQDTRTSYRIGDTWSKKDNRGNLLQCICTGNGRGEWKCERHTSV
T2 sequence (P00750 36-562): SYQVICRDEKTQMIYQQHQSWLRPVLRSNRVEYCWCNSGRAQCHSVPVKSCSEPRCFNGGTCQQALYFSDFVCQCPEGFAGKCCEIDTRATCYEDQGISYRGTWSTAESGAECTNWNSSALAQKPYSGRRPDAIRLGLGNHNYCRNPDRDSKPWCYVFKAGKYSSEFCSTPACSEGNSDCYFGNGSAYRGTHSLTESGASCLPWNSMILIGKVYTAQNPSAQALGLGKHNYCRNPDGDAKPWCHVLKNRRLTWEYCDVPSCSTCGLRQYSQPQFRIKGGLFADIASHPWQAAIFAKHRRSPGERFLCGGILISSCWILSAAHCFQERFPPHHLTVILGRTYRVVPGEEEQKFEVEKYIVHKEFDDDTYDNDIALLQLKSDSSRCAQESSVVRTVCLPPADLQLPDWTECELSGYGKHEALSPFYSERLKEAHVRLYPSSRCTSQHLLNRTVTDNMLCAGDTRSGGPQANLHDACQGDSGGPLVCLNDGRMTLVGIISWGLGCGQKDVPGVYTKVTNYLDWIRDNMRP
T1 sequence (P02769 25-607): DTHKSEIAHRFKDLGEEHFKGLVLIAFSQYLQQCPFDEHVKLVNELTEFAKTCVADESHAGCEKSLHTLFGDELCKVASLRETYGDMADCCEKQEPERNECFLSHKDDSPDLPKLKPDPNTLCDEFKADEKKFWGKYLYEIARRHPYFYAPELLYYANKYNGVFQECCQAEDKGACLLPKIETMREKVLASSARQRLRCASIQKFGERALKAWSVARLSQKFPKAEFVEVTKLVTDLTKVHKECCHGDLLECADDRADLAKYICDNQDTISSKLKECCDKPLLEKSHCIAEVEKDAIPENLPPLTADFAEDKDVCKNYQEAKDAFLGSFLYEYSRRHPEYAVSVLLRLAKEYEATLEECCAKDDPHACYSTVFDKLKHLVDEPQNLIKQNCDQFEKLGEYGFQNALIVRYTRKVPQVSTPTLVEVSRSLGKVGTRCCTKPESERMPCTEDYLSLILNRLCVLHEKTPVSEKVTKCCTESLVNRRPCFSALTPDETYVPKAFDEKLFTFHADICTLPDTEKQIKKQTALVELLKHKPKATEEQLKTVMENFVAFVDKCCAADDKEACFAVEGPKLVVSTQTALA

Compound: Nc1c(/N=N/c2ccc(-c3ccc(/N=N/c4cc(S(=O)(=O)O)c5ccccc5c4N)cc3)cc2)cc(S(=O)(=O)O)c2ccccc12 [Congo red]
influence on binding of LRP cl-IV to BSA-AGE [1]: inhibit binding of LRP cl-IV to BSA-AGE to a large extent
competition for tPA binding to amyloid-like aggregates [2]: can efficiently compete for tPA binding
inhibition at 200 µM (platelets; Homo sapiens, Platelet, 200 μM, read-out: inhibition of platelet aggregation): ≤ 30%

binding of tPA (tPA [4]): binding of tPA was established
activation of factor XII (factor XII; kept at 37° C.): activated factor XII
activation of the factor XII/prekallikrein contact system (factor XII; stored at 4° C.): not
Compound: Gelatin
enhancement of Congo red fluorescence ([3]; stored at 4° C. and 37° C.): enhanced Congo red fluorescence in a storage temperature dependent manner
enhancement of Congo red fluorescence ([3]; stored at the recommended storage temperature of 4° C.): enhanced the fluorescence of Congo red

tPA activating properties (tPA [5]): absence of tPA activating properties
binding to the Fn F4-5 doublet (Fn F4-5; Biacore, native Hb at 25 nM): bound
Kd (Fn F4-5; immobilized Fn F4-5, Biacore CM5 chip, read-out: concentration of ligand that results in half maximum binding to Fn F4-5): ≤ 800 nM and 800 nM
Compound: endostatin

Compound: tPA: tissue-type plasminogen activator
inhibition of thrombin-induced aggregation (platelets; 1 μM): 55%

From patent US20080220446A1, “Method for Detecting and/or Removing Protein and/or Peptide Comprising a Cross-Beta Structure From an Aqueous Solution Comprising a Protein” (priority 2005, published 2008)
